For seven test systems, surviving fraction results are on record in the supplement of paper PMC6045584.

Compound in one test: CN(C)CC[C@H](CSc1ccccc1)Nc1ccc(S(=O)(=O)NC(=O)c2ccc(N3CCN(Cc4ccccc4-c4ccc(Cl)cc4)CC3)cc2)cc1[N+](=O)[O-] [ABT-737]
Description: surviving fraction relative to DMSO-only wells; higher = less growth inhibition. Particulars: exposure time: 5 days. A digest of the protocol:
(§1)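 Lines were retained only if, across three screens, replicate Pearson r was >0.7 and median Z' was >0.3. Viability was measured as CellTiter-Glo luminescence and reported as surviving fraction relative to the median of DMSO-only wells. Readings followed 10 minutes at room temperature, after log-phase tumour cells seeded at 250–500 per well in 384-well plates had been exposed, from 24 hours after seeding, continuously for five days to inhibitors at 0.5, 1, 5, 10, 50, 100, 500 and 1000 nM.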

Compound in a further test: CN1CC[C@H](c2c(O)cc(O)c3c(=O)cc(-c4ccccc4Cl)oc23)[C@H](O)C1 [FLAVOPIRIDOL]
The test is described as above. Particulars: exposure time: 5 days. In outline:
as §1

± gives the standard deviation of the averaged measurements.

Regarding G292 BONE, the surviving fraction with ABT-737 (0.5 nM) came to 1.06 ± 0.043; with ABT-737 (1 nM), 1.03 ± 0.021; with ABT-737 (5 nM) it was 1.08 ± 0.014; with ABT-737 (10 nM), 1.02 ± 0.012; with ABT-737 (50 nM), 1.07 ± 0.022; with ABT-737 (100 nM), 1.06 ± 0.024. For the same test system, the surviving fraction with ABT-737 (500 nM) turned out to be 1.02 ± 0.019; in the test with ABT-737 (1000 nM), 0.904 ± 0.027; in the test with FLAVOPIRIDOL (0.5 nM), 0.97 ± 0.068; with FLAVOPIRIDOL (1 nM), 0.987 ± 0.057; with FLAVOPIRIDOL (5 nM), 1.033 ± 0.0078; in the test with FLAVOPIRIDOL (10 nM) it was 0.995 ± 0.024. Also, the surviving fraction is 0.628 ± 0.039 in the test with FLAVOPIRIDOL (50 nM), 0.18 ± 0.0055 with FLAVOPIRIDOL (100 nM), 0.0742 ± 0.0043 in the test with FLAVOPIRIDOL (500 nM) and 0.0712 ± 0.0055 with FLAVOPIRIDOL (1000 nM).

As for HCC38 BREAST, the surviving fraction in the test with ABT-737 (0.5 nM) was found to be 1.22 ± 0.037; in the test with ABT-737 (1 nM), 1.23 ± 0.086; with ABT-737 (5 nM) it was 1.3 ± 0.23; with ABT-737 (10 nM) it was 1.31 ± 0.049; with ABT-737 (50 nM), 1.21 ± 0.11; with ABT-737 (100 nM), 1.26 ± 0.17. The surviving fraction with ABT-737 (500 nM) came out at 0.873 ± 0.12; with ABT-737 (1000 nM), 0.714 ± 0.068; in the test with FLAVOPIRIDOL (0.5 nM) it was 1.18 ± 0.1; in the test with FLAVOPIRIDOL (1 nM), 1.22 ± 0.13; in the test with FLAVOPIRIDOL (5 nM), 1.33 ± 0.097; with FLAVOPIRIDOL (10 nM), 1.34 ± 0.21. The surviving fraction with FLAVOPIRIDOL (50 nM) was found to be 1.02 ± 0.15; with FLAVOPIRIDOL (100 nM) it was 0.571 ± 0.18; in the test with FLAVOPIRIDOL (500 nM), 0.046 ± 0.0053; in the test with FLAVOPIRIDOL (1000 nM), 0.0423 ± 0.0093.

Turning to HCC70 BREAST, the surviving fraction in the test with ABT-737 (0.5 nM) was found to be 1.07 ± 0.044; with ABT-737 (1 nM) it was 1.11 ± 0.08; with ABT-737 (5 nM), 1.1 ± 0.065; with ABT-737 (10 nM) it was 1.11 ± 0.051; with ABT-737 (50 nM), 1.06 ± 0.092; with ABT-737 (100 nM), 1.03 ± 0.078. Moreover, the surviving fraction in the test with ABT-737 (500 nM) was determined as 1 ± 0.048; with ABT-737 (1000 nM) it was 0.978 ± 0.032; with FLAVOPIRIDOL (0.5 nM) it was 1.03 ± 0.06; in the test with FLAVOPIRIDOL (1 nM), 1.02 ± 0.11; with FLAVOPIRIDOL (5 nM), 1.06 ± 0.1; in the test with FLAVOPIRIDOL (10 nM) it was 1.01 ± 0.11. Further, the surviving fraction turned out to be 0.784 ± 0.1 with FLAVOPIRIDOL (50 nM), 0.129 ± 0.078 in the test with FLAVOPIRIDOL (100 nM), 0.0557 ± 0.032 with FLAVOPIRIDOL (500 nM) and 0.0423 ± 0.019 with FLAVOPIRIDOL (1000 nM).

Take HMLE3 BREAST: the surviving fraction turned out to be 1.06 ± 0.073 with ABT-737 (0.5 nM); 1.06 ± 0.049 with ABT-737 (1 nM); 1.15 ± 0.013 with ABT-737 (5 nM); 1.17 ± 0.11 in the test with ABT-737 (10 nM); 1.1 ± 0.13 with ABT-737 (50 nM); 1.17 ± 0.12 with ABT-737 (100 nM). Besides, the surviving fraction stood at 1.17 ± 0.13 in the test with ABT-737 (500 nM); 1.22 ± 0.1 in the test with ABT-737 (1000 nM); 1.07 ± 0.088 with FLAVOPIRIDOL (0.5 nM); 0.951 ± 0.097 with FLAVOPIRIDOL (1 nM); 1.16 ± 0.087 with FLAVOPIRIDOL (5 nM); 1.11 ± 0.097 in the test with FLAVOPIRIDOL (10 nM). In addition, the surviving fraction with FLAVOPIRIDOL (50 nM) was found to be 0.771 ± 0.074; in the test with FLAVOPIRIDOL (100 nM), 0.131 ± 0.029; in the test with FLAVOPIRIDOL (500 nM), 0.026 ± 0.0036; with FLAVOPIRIDOL (1000 nM), 0.0233 ± 0.0015.

Turning to HMT3552 BREAST, the surviving fraction with ABT-737 (0.5 nM) came out at 1.01 ± 0.084; with ABT-737 (1 nM), 1.02 ± 0.033; with ABT-737 (5 nM), 1.04 ± 0.035; in the test with ABT-737 (10 nM), 0.979 ± 0.082; with ABT-737 (50 nM), 1.1 ± 0.036; in the test with ABT-737 (100 nM), 1.23 ± 0.038. Further, the surviving fraction with ABT-737 (500 nM) stood at 1.03 ± 0.06; with ABT-737 (1000 nM) it was 1.17 ± 0.03; in the test with FLAVOPIRIDOL (0.5 nM), 1.06 ± 0.041; with FLAVOPIRIDOL (1 nM), 1.05 ± 0.045; in the test with FLAVOPIRIDOL (5 nM), 0.986 ± 0.071; with FLAVOPIRIDOL (10 nM) it was 0.963 ± 0.027. The surviving fraction in the test with FLAVOPIRIDOL (50 nM) is 0.232 ± 0.019; in the test with FLAVOPIRIDOL (100 nM), 0.068 ± 0.0027; with FLAVOPIRIDOL (500 nM), 0.066 ± 0.003; with FLAVOPIRIDOL (1000 nM) it was 0.061 ± 0.0027.

For the test system HS57T BREAST, the surviving fraction in the test with ABT-737 (0.5 nM) was determined as 1.03 ± 0.056; with ABT-737 (1 nM), 1.09 ± 0.011; in the test with ABT-737 (5 nM), 1.08 ± 0.072; with ABT-737 (10 nM), 1.11 ± 0.093; in the test with ABT-737 (50 nM), 1.04 ± 0.01; with ABT-737 (100 nM), 1.06 ± 0.066. For the same test system, the surviving fraction amounted to 0.981 ± 0.039 with ABT-737 (500 nM); 0.965 ± 0.018 with ABT-737 (1000 nM); 1.06 ± 0.053 in the test with FLAVOPIRIDOL (0.5 nM); 1.06 ± 0.015 with FLAVOPIRIDOL (1 nM); 1.12 ± 0.037 in the test with FLAVOPIRIDOL (5 nM); 1.16 ± 0.035 in the test with FLAVOPIRIDOL (10 nM). Also, the surviving fraction was 0.667 ± 0.018 in the test with FLAVOPIRIDOL (50 nM), 0.0337 ± 0.0025 with FLAVOPIRIDOL (100 nM), 0.036 ± 0.001 in the test with FLAVOPIRIDOL (500 nM) and 0.0327 ± 0.0021 with FLAVOPIRIDOL (1000 nM).

Take HS578T BREAST: the surviving fraction was 1.08 ± 0.11 in the test with ABT-737 (0.5 nM); 1.37 ± 0.23 with ABT-737 (1 nM); 1.26 ± 0.15 in the test with ABT-737 (5 nM); 1.24 ± 0.11 in the test with ABT-737 (10 nM); 1.18 ± 0.073 in the test with ABT-737 (50 nM); 1.15 ± 0.15 in the test with ABT-737 (100 nM). Besides, the surviving fraction with ABT-737 (500 nM) stood at 0.975 ± 0.021; with ABT-737 (1000 nM), 0.955 ± 0.059; with FLAVOPIRIDOL (0.5 nM), 1.13 ± 0.054; with FLAVOPIRIDOL (1 nM) it was 1.21 ± 0.13; with FLAVOPIRIDOL (5 nM), 1.19 ± 0.29; with FLAVOPIRIDOL (10 nM), 1.21 ± 0.2. The surviving fraction with FLAVOPIRIDOL (50 nM) worked out at 0.667 ± 0.08; with FLAVOPIRIDOL (100 nM), 0.0923 ± 0.01; in the test with FLAVOPIRIDOL (500 nM) it was 0.068 ± 0.0036; with FLAVOPIRIDOL (1000 nM), 0.0673 ± 0.0025.
